In US8383647B2, “Quinoline derivative” (Takeda Pharmaceutical Company Limited, priority 2009, dated 2013):
Where “and” joins values, the source holds several entries; their conditions need not be identical. Equal entries are not always repeated. Marks after values point to notes of the source that are not given here.

How the values were obtained:
[1] = biological target: human SLC-1 (Homo sapiens, UniProt Q99705); assay: MCH receptor antagonistic activity (inhibitory activity, Experimental Example 1); assay type: biochemical
[2] = biological target: rat SLC-1 (Rattus norvegicus, UniProt P97639); assay: as above; assay type: biochemical
[3] = tested on: Male F344/Jcl rats fed on high-fat diet; assay: Evaluation of anorectic effect using male F344/Jcl rats fed on high-fat diet; assay type: in vivo; details: 10 mg/kg by gavage, two administrations; food intake from initial administration to 48 hr; relative to control group; obese rat model
Protocol: Male F344/Jcl rats (42-week-old) loaded with a high-fat diet (Research Diets: D12451) from 5 weeks of age were used. From 2 weeks before the start of experiment, the rats were independently raised, a powder high-fat diet (Research Diets: D12451M) was given, tap water (0.5 mL) was administered for acclimation, and thereby the rats were habituated. The food intake from 14:00 the day before the start of experiment to 9:00 the next day was measured, and the rats were grouped based on the food intake and the body weight of the previous day as indices. On the day of the start of experiment and the next day at 16:00, 0.5% methylcellulose solution was administered by gavage to the control group, and 0.5% methylcellulose suspension (10 mg/kg) of the compound was administered by gavage to the compound administration group at 2 mL/kg (6 per group for both control group and compound administration group). The food intake from the initial administration to 48 hr later was measured. The food intake inhibition rate of each compound administration group to the control group was calculated.

[4] = biological target: T1, HERG (Homo sapiens, UniProt Q12809); assay: Evaluation of HERG inhibitory activity (whole-cell patch clamp, HERG.T.HEK cells); assay type: cell-based; details: peak tail current
T1 construct: host or cells: HERG.T.HEK (HEK cells, Geneticin-selected)
Text: MEM medium, MEM nonessential amino acid solution, sodium pyruvate solution and G418 sulfate solution (Geneticin) were purchased from Invitrogen Corporation (Carlsbad, Calif.). Bovine serum albumin (BSA, Fatty Acid Free) was a product of Wako Pure Chemical Industries, Ltd. (Osaka, Japan). Fetal bovine serum (FCS) was a product of Trau Scientific Ltd. (Melbourne, Australia).
As HERG expression cell HERG.T.HEK, the cell obtained from Wisconsin ALUMNI Research Foundation was used. HERG.T.HEK was maintained and passaged at 37° C. in the presence of 5% CO2 using an MEM medium containing 10% FCS, 1 mM MEM nonessential amino acid, 1 mM sodium pyruvate and 500 μg/ml Geneticin.
80-90% confluent cells were collected by a trypsin treatment and plated on an IVF dish (Falcon, Franklin Lakes, N.J.). After 2-3 hr, cells were adhered to a glass electrode (resistance value 2-3 MΩ) filled with an electrode internal fluid (7 mM NaCl, 130 mM KCl, 1 mM MgCl2, 5 mM HEPES, 5 mM EGTA, 5 mM ATP-Na: pH 7.2) while perfusing with an extracellular fluid (137 mM NaCl, 4 mM KCl, 1 mM MgCl2, 1.8 mM CaCl2, 10 mM HEPES, 11 mM dextrose: pH 7.4), using a patch clamp amplifier AXOPATCH 200B (Axon instruments, Foster City, Calif.), whereby formation of whole-cell configuration and stimulation by voltage clamp protocol were performed (holding potential −75 mV, primary voltage 10 mV: 0.5 sec, secondary voltage −40 mV: 0.5 sec, stimulation frequency 5 sec (Example 31 and Example 50) or 10 sec (Comparative Example 1 and Comparative Example 2). A preliminary stimulation was applied and the HERG electric current value (peak tail current) was measured when the electric current waveform was stabilized.
For measurement of the HERG electric current with addition of the test compound, the cells were first perfused with the extracellular fluid and, when the waveform was stabilized, the cells were perfused with an extracellular fluid containing 10 μm of a test compound. When the electric current waveform was stabilized under respective perfuse conditions, the HERG electric current was measured.
The HERG electric current inhibitory rate (%) of the test compound was calculated with the HERG electric current value without addition of the test compound as 100%.

[5] = tested on: HepG2 cells; assay: Evaluation of PLsis (NBD-PE uptake); assay type: cell-based; details: 24 hr exposure, relative to 10 μM Amiodarone, maximum value per unit concentration
Protocol: DMEM medium, L-glutamine, penicillin-streptomycin, pyruvic acid, and N-(7-nitrobenz-2-oxa-1,3-diazol-4-yl)-1,2-hexadecanoyl-sn-glycero-3-phosphoethanolamine triethylammonium salt (NBD-PE) were purchased from Invitrogen Corporation. As bovine serum albumin (BSA), a product of Thermo Trace Ltd. (Melbourne, Australia) was used, and as Amiodarone, a product of ICN (Costa Mesa, Calif.) was used. A test compound was used in the form of a 10 mM DMSO solution.
FBS was added at a final concentration of 5 vol % to DMEM medium supplemented with L-glutamine, pyruvic acid and penicillin-streptomycin and subjected to the experiment. Culture was performed using 5% carbon dioxide gas-95% air as a gas phase in a CO2 incubator at 37° C. HepG2 cells were suspended in a culture medium at 50×10^4 cells/mL, plated in a 96 well plate at 50 μL/well and precultured for 24 hr. After preculture, the culture medium was removed, a culture medium containing 60 μm NBD-PE was added at 50 μL/well, and a culture medium containing 0, 6 μM or 20 μM test compounds were each added at 50 μL/well to HepG2 cells, and the cells were cultured for 24 hr. As a positive control, Amiodarone was used at a final concentration of 10 μM.
After exposure to the test compound for 24 hr, the fluorescence intensity (Ex. 485 nm, Em. 538 nm) of NBD-PE uptaken by the cells was measured by a fluorometer. The measurement value with addition of 0 μM test compound solution was subtracted as a blank, a relative value to the measurement value with addition of 10 μm Amiodarone was calculated, and the maximum value per unit concentration of the test compound was obtained as a phospholipidosis (PLsis) induction potential.

T1 sequence (Q12809 whole entry): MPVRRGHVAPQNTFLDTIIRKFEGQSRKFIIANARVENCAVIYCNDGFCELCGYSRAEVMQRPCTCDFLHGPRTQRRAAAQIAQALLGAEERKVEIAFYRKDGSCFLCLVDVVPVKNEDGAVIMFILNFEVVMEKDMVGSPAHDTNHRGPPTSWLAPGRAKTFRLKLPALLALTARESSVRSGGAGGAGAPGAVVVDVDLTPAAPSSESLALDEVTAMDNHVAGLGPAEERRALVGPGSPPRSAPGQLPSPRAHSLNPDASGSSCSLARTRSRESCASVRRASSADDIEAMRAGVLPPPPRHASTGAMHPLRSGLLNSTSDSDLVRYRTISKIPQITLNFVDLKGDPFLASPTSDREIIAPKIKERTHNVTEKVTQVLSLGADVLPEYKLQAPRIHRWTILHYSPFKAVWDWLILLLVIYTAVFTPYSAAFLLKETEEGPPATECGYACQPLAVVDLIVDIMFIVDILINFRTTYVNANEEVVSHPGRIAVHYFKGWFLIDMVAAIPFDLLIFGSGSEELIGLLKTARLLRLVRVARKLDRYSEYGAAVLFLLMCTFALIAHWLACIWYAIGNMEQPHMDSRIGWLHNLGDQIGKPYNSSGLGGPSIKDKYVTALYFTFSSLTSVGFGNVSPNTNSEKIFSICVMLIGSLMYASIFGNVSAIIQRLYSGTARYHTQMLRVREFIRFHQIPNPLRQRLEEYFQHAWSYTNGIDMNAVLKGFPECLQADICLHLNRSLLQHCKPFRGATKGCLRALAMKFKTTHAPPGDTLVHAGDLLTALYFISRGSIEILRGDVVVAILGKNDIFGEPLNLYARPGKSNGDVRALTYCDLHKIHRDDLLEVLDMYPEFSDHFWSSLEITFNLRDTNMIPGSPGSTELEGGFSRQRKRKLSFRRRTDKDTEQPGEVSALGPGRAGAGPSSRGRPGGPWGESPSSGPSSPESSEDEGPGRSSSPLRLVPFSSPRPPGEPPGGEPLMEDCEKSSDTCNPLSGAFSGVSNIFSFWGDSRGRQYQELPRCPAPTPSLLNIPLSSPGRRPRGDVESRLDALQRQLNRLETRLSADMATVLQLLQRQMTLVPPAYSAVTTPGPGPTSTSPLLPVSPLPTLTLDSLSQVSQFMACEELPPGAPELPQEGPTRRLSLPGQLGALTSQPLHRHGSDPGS
Sequence of rat SLC-1 (P97639 whole entry): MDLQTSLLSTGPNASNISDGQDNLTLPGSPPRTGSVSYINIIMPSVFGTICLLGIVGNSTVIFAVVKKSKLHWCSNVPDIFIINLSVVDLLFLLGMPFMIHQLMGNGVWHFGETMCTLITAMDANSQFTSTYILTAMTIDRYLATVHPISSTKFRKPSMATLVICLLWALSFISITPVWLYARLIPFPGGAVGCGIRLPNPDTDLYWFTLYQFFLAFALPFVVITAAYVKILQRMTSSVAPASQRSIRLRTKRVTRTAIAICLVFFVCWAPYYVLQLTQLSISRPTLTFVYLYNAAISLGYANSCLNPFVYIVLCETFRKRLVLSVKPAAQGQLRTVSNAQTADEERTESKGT
Sequence of human SLC-1 (Q99705 whole entry): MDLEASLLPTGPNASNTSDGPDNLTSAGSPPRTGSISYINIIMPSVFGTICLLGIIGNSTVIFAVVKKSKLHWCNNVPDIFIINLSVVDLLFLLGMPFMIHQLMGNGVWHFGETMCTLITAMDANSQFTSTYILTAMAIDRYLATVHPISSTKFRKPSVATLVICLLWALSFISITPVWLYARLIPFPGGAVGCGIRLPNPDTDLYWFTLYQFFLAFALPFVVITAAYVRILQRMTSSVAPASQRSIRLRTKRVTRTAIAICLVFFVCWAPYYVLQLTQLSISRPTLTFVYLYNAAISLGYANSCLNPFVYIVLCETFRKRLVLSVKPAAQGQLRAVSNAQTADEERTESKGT

IC50 [1]	IC50 [2]	PLsis induction potential [5]	melting point	SMILES	food intake inhibition rate (%) [3]	HERG electric current inhibitory rate (%) of 10 μM compound [4]
3.1 nM	4.3 nM	1.7	158 to 159 °C	Cc1c(NC(=O)c2ccc(OC[C@@H]3CCCO3)cc2)ccc2cc(CNC3CCOCC3)cnc12 [Example 31, N-{8-methyl-3-[(tetrahydro-2H-pyran-4-ylamino)methyl]quinolin-7-yl}-4-[(2S)-tetrahydrofuran-2-ylmethoxy]benzamide]	24.8*** %	9.8%
2.9 nM	3.9 nM	1.4	165 °C and 169 °C	Cc1c(NC(=O)c2ccc(OC[C@@H]3CCCO3)cc2)ccc2cc(CN[C@H]3CC[C@](C)(O)CC3)cnc12 [Example 50, N-(3-{[(trans-4-hydroxy-4-methylcyclohexyl)amino]methyl}-8-methylquinolin-7-yl)-4-[(2S)-tetrahydrofuran-2-ylmethoxy]benzamide]	30.3*** %	2.1%
